In series [1] the target is T1, AHR (Rattus norvegicus, UniProt P41738).
T1 construct: In rat hepatoma H411E cells treated with 100 μM L-kynurenine; endogenous in cells; host or cells: H411E rat hepatoma cells
T1 sequence (P41738 10-853): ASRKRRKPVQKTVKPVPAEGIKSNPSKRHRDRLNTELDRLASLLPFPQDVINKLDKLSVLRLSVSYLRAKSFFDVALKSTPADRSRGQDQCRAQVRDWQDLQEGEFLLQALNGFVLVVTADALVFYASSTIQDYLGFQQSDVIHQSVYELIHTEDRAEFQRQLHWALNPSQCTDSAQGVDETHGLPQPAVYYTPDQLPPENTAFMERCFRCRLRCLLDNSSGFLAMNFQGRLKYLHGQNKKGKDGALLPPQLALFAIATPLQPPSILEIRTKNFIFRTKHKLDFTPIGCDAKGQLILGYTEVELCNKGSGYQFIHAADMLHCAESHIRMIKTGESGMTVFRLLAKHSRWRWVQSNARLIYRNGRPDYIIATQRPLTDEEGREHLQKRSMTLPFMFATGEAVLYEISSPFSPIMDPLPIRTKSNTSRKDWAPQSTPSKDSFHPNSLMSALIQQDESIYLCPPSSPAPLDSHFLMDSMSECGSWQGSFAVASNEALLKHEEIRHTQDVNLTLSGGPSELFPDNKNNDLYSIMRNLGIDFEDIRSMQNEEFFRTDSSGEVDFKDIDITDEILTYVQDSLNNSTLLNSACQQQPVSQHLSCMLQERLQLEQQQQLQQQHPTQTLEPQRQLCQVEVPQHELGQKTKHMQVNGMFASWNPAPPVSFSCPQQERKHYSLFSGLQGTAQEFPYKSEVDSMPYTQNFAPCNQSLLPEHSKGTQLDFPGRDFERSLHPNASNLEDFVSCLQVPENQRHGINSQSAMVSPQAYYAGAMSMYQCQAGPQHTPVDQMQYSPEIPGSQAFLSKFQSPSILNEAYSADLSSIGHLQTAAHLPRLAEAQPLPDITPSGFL
The series can be described thus: AHR-dependent Cyp1A1 expression (P450-Glo) in rat H411E hepatoma cells stimulated with L-kynurenine. It is filed as cell-based. The settings on record: 100 μM L-kynurenine, 24 hours. The procedure:
The ability of Compound A to inhibit AHR-dependent Cyp1A1 gene expression was examined in vitro by measuring changes in Cyp1A1 enzymatic activity in 2 rodent hepatoma cell lines following AHR agonist stimulation. Mouse Hepa1.6 and rat H411E hepatoma cells were treated with AHR agonists VAF347 and L-kynurenine, respectively, in the presence of Compound A at multiple concentrations for 24 hours. The inhibition of Cyp1A1 expression was subsequently evaluated by measuring Cyp1A1 enzyme activity using P450-Glo assays.

A further series concerns CT26.WT. As to the kind of experiment: CT26.WT syngeneic colorectal cancer model, tumor growth, survival and re-challenge. It is filed as in vivo, Balb/cJ mice. The method, then:
The effect of single agent Compound A, and Compound A in combination with anti-PD-1 antibody (BioXcell RMP1-14) on TGI and tumor survival was evaluated in the CT26.WT syngeneic model of colorectal cancer. Balb/cJ female mice were inoculated subcutaneously with tumor cells and 4 days after inoculation, Compound A (10 mg/kg or 25 mg/kg) or Vehicle was administered orally QD for a total of 53 doses. Concurrently, anti-PD-1 antibody (10 mg/kg) was administered IP twice a week for a total of 5 doses.
At ≥95 days after the appearance of CRs in mice treated with the combination of Compound A and anti-PD-1 antibody, the responder animals were re-challenged with CT26.WT cells. Five naïve mice were also injected with CT26.WT cells as a positive control for tumor formation.

Series [2] relates to AHR. The series can be described thus: AHR activity in human and rodent cell lines (summary). Type of series: cell-based. From the text:
(§1) Compound A is a selective AHR antagonist being developed as an orally administered therapeutic. […] Compound A inhibits CYP1A1 and interleukin (IL)-22 gene expression and leads to an increase in pro-inflammatory cytokines, such as IL-2 and IL-9.

The test system of series [3] is other receptors, transporters, and kinases. As to the kind of experiment: Selectivity for AHR over other receptors, transporters, and kinases.
Text: as §1

The target in series [4] is T2, AHR (Homo sapiens, UniProt P35869).
T2 sequence (P35869 11-848): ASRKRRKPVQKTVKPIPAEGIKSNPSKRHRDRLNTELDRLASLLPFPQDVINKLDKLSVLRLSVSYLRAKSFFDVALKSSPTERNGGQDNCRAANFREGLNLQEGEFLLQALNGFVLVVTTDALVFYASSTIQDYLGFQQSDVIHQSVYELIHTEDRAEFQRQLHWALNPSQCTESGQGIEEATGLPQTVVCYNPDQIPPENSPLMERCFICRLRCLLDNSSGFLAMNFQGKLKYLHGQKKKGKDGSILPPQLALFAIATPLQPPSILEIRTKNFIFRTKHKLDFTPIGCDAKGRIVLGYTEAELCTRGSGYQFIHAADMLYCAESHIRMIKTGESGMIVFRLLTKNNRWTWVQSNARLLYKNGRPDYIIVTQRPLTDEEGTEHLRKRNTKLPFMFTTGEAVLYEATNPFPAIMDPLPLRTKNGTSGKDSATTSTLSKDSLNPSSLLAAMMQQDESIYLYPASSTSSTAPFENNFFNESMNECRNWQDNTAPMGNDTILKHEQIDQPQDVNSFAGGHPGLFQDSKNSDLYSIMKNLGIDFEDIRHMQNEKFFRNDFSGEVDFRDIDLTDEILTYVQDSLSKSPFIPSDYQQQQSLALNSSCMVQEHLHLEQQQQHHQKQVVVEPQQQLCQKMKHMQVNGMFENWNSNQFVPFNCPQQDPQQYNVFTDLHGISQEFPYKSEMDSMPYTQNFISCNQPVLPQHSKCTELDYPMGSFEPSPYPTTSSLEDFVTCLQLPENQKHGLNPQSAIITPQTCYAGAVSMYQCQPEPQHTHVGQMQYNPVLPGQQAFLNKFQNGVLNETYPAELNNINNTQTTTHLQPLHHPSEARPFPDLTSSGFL
The series can be described thus: HepG2 DRE-Luc reporter assay, VAF347-stimulated luciferase expression. Type of series: cell-based. More on the design: endogenous in cells; host or cells: HepG2 DRE-Luc reporter cell line. To be noted: 80 nM VAF347, n=2. The procedure:
In vitro experiments were conducted to examine the inhibitory activity of Compound A for AHR-mediated transcriptional activation in the HepG2 DRE-Luc reporter cell line. This human hepatoma cell line stably expresses a luciferase reporter gene under control of AHR-responsive DRE enhancer elements (Han, 2004). HepG2 DRE-Luc reporter cells were treated with 80 nM VAF347 to activate AHR.
The inhibitory activity of the human Compound A metabolites, Compound B and Compound C was also determined in the HepG2 DRE-Luc cell line. Reporter cells were stimulated with 80 nM VAF347 and each metabolite at multiple concentrations.

With `CC(C)c1cnn2c(N[C@@H]3CCc4[nH]c5ccccc5c4C3)nc(-c3cncc(F)c3)nc12` [Compound A, (R)—N-(2-(5-fluoropyridin-3-yl)-8-isopropylpyrazolo[1,5-a][1,3,5]triazin-4-yl)-2,3,4,9-tetrahydro-1H-carbazol-3-amine], the IC50 at AHR [1] was 151 nM; with AHR [2], 35 to 150 nM; on AHR [4] it was 91 nM. For the same molecule, the “TGI relative to vehicle treated mice” value in the series on CT26.WT (Compound A 10 mg/kg PO QD (alone or with anti-PD-1 10 mg/kg IP twice a week)) was determined as 39.8%; in the series with CT26.WT (Compound A 25 mg/kg PO QD (alone or with anti-PD-1 10 mg/kg IP twice a week)) it was 40.9%. Further, the “selectivity for AHR over other receptors, transporters, and kinases” value in series [3] is given as “highly selective”.

Values taken from US20230026232A1, “AHR INHIBITORS AND USES THEREOF” (Ikena Oncology, Inc., priority 2019, published 2023).
